Counter-ions that a name gives are not always drawn.
Tests used:
[1] = Narrow-range pH-stability profiling at 60° C. (HPLC); assay type: physicochemical; settings: 50 mM sodium phosphate, zero-order rate constant vs pH
Method: (§1) The drug is monitored at a detection wavelength of 232 nm.
All samples were stored in the dark. […] All samples were analyzed without dilution.
The phosphate buffers were prepared as previously described. […] Measurement of sample pH was done after HPLC analysis.
In order to precisely define the most favorable pH, a stronger stressing condition was needed to generate a greater extent of degradation in the lower pH region. For this study, the incubation condition was shifted from 40° C. to 60° C. […] Since the extent of degradation after fourteen (14) days was still less than twenty percent (20%) in most samples, zero-order rate kinetics was used for the degradation curves (concentration versus time). The calculated rate constant was plotted against pH to provide the narrow-range pH-stability profile.

[2] = Effect of buffer anion on stability at 60° C. (HPLC); assay type: physicochemical
Method: as §1
Tightly sealed glass vials containing the test solutions were placed in an oven at 40° C. or 60° C. All samples were stored in the dark. Aliquots were removed at designated time points for HPLC analysis and pH measurement. All samples were analyzed without dilution.
The test buffers included 50 mM sodium phosphate, 50 mM sodium acetate, 50 mM sodium lactate, 50 mM sodium citrate, and 50 mM sodium succinate buffers at pH 3.
The phosphate and acetate buffers were prepared as described above. The citrate buffer was prepared by adding 9.60 g of citric acid to water, adjusting the pH with 2 N NaOH to pH 3, and bringing the volume to 1 L in a volumetric flask. The lactate buffer was prepared by adding 2.25 g of lactic acid to water, adjusting the pH with 2 N NaOH to pH 3, and bringing the volume to 1 L in a volumetric flask. The succinate buffer was prepared by adding 2.95 g succinic acid to water, adjusting the pH with 2 N NaOH to pH 3, and bringing the volume to 1 L in a volumetric flask.
Measurements of sample pH were done after HPLC analysis.

[3] = test system: healthy adult volunteers; test: Reversal of soft-tissue anesthesia after inferior alveolar nerve block, proof-of-principle trial; assay type: in vivo, human; settings: 0.2 mg in 1.8 ml
Method: The objective of this proof-of-principle trial was to evaluate the feasibility of reversing soft-tissue anesthesia by pharmacologically blocking the effects of epinephrine. […] Subjects self-evaluated the return of normal sensation in their lip, chin, tongue, nose, and teeth by palpations at 5-minute intervals starting at 5 minutes before the study drug injection and continuing for approximately 4–5 hours. To avoid biased responding, subjects were told that they could not leave the clinic for 8 hours after the last injection. Responses for soft tissues were categorized as (1) numb (no feeling), (2) feeling of pins and needles, or (3) normal sensation. Responses for teeth were (1) numb (no feeling) or (2) normal sensation. Safety was evaluated through reports of adverse events, measurement of vital signs and two-lead electrocardiograms before, during, and after the injections of anesthetic and study drug, and through pain assessments using visual analog scales.

[4] = test system: healthy adult volunteer subjects; test: Dose range study of reversal of local anesthesia after mandibular nerve block; assay type: in vivo, human
Source text: The objectives of this study were to evaluate the safety and efficacy of a range of doses of phentolamine in reversing local anesthesia after a mandibular nerve block. […] Subjects palpated their lower lip, chin, tongue, and teeth every five minutes for the next five hours after injections.

[5] = test system: healthy adult volunteer subjects; test: Dose range study of reversal of local anesthesia after maxillary infiltration; assay type: in vivo, human
Method: Four groups of eight healthy adult volunteer subjects were given an infiltration of the lateral incisor using one 1.8 ml cartridge of lidocaine 2% with epinephrine 1:100,000. […] Subjects palpated their upper lip, nose, and teeth every five minutes for the next five hours after injections.

[6] = 50 mM sodium Acetate pH 3.0, 60° C., Day 0
[7] = 50 mM sodium Acetate pH 3.0, 60° C., Day 2
[8] = 50 mM sodium Acetate pH 3.0, 60° C., Day 7
[9] = 50 mM sodium Acetate pH 3.0, 60° C., Day 14
[10] = 50 mM sodium Citrate pH 3.0, 60° C., Day 0
[11] = 50 mM sodium Citrate pH 3.0, 60° C., Day 2
[12] = 50 mM sodium Citrate pH 3.0, 60° C., Day 7
[13] = 50 mM sodium Citrate pH 3.0, 60° C., Day 14
[14] = 50 mM sodium Lactate pH 3.0, 60° C., Day 0
[15] = 50 mM sodium Lactate pH 3.0, 60° C., Day 2
[16] = 50 mM sodium Lactate pH 3.0, 60° C., Day 7
[17] = 50 mM sodium Lactate pH 3.0, 60° C., Day 14
[18] = 50 mM sodium Phosphate pH 3.0, 60° C., Day 0
[19] = 50 mM sodium Phosphate pH 3.0, 60° C., Day 2
[20] = 50 mM sodium Phosphate pH 3.0, 60° C., Day 7
[21] = 50 mM sodium Phosphate pH 3.0, 60° C., Day 14
[22] = 50 mM sodium Succinate pH 3.0, 60° C., Day 0
[23] = 50 mM sodium Succinate pH 3.0, 60° C., Day 2
[24] = 50 mM sodium Succinate pH 3.0, 60° C., Day 7
[25] = 50 mM sodium Succinate pH 3.0, 60° C., Day 14

For `Cc1ccc(N(CC2=NCCN2)c2cccc(O)c2)cc1` [Phentolamine Mesylate, phentolamine mesylate], the “pH at which most stable” value [1] was 3.5, the “Phentolamine Concentration” value [2, 6] was 96 µg/mL and the “Phentolamine Purity” value [2, 6] was 100 % peak area. For the same compound, the “Phentolamine Concentration” value [2, 7] was 95 µg/mL, the “Phentolamine Purity” value [2, 7] was 98 % peak area and the “Phentolamine Concentration” value [2, 8] was 94 µg/mL. The “Phentolamine Purity” value [2, 8] was 97 % peak area, the “Phentolamine Concentration” value [2, 9] was 89 µg/mL and the “Phentolamine Purity” value [2, 9] was 96 % peak area. For the same compound, the “Phentolamine Concentration” value [2, 10] was 93 µg/mL, the “Phentolamine Purity” value [2, 10] was 97 % peak area and the “Phentolamine Concentration” value [2, 11] was 87 µg/mL. The “Phentolamine Purity” value [2, 11] was 91 % peak area, the “Phentolamine Concentration” value [2, 12] was 73 µg/mL and the “Phentolamine Purity” value [2, 12] was 77 % peak area. The “Phentolamine Concentration” value [2, 13] was 62 µg/mL, the “Phentolamine Purity” value [2, 13] was 69 % peak area and the “Phentolamine Concentration” value [2, 14] was 97 µg/mL. For the same compound, the “Phentolamine Purity” value [2, 14] was 99 % peak area, the “Phentolamine Concentration” value [2, 15] was 94 µg/mL and the “Phentolamine Purity” value [2, 15] was 98 % peak area. For the same compound, the “Phentolamine Concentration” value [2, 16] was 91 µg/mL, the “Phentolamine Purity” value [2, 16] was 94 % peak area and the “Phentolamine Concentration” value [2, 17] was 83 µg/mL. For the same compound, the “Phentolamine Purity” value [2, 17] was 89 % peak area, the “Phentolamine Concentration” value [2, 18] was 96 µg/mL and the “Phentolamine Purity” value [2, 18] was 99 % peak area. For the same compound, the “Phentolamine Concentration” value [2, 19] was 93 µg/mL, the “Phentolamine Purity” value [2, 19] was 97 % peak area and the “Phentolamine Concentration” value [2, 20] was 91 µg/mL. For the same compound, the “Phentolamine Purity” value [2, 20] was 95 % peak area, the “Phentolamine Concentration” value [2, 21] was 84 µg/mL and the “Phentolamine Purity” value [2, 21] was 91 % peak area. For the same compound, the “Phentolamine Concentration” value [2, 22] was 96 µg/mL, the “Phentolamine Purity” value [2, 22] was 99 % peak area and the “Phentolamine Concentration” value [2, 23] was 88 µg/mL. For the same compound, the “Phentolamine Purity” value [2, 23] was 92 % peak area, the “Phentolamine Concentration” value [2, 24] was 74 µg/mL and the “Phentolamine Purity” value [2, 24] was 78 % peak area. For the same compound, the “Phentolamine Concentration” value [2, 25] was 64 µg/mL, the “Phentolamine Purity” value [2, 25] was 74 % peak area and the “rank of buffer preference based on the amount of phentolamine recovered at the end of the study” value ([2]; pH 3, 60° C., 14 days) was “sodium acetate>no buffer (water with pH adjusted to pH 3)>sodium phosphate>sodium lactate>sodium succinate>sodium citrate”. The electrocardiogram [3] was “no abnormalities”, the duration of anesthesia ([3]; 60 minutes after 2% lidocaine with 1:100,000 epinephrine, vs saline, each tissue) was “significantly (p<0.01) reduced” and the Adverse effects ([3]; vs placebo) was “few and no differences were noted between the active and placebo groups”. For the same compound, the electrocardiogram ([4]; 0.02 mg, 0.06 mg, 0.4 mg in 1.8 ml) was “no abnormalities”, the Adverse events ([4]; 0.02 mg, 0.06 mg, 0.4 mg in 1.8 ml, vs placebo) was “few and no differences were noted between the active and placebo groups” and the duration of anesthesia ([4]; all doses tested (0.02 mg, 0.06 mg, 0.4 mg in 1.8 ml), 60 minutes after lidocaine 2% with epinephrine 1:100,000, vs saline, each measured tissue) was “significantly (p<0.05) reduced”. For the same compound, the electrocardiogram ([5]; 0.02 mg, 0.08 mg, 0.4 mg in 1.8 ml) was “no abnormalities”, the Adverse events ([5]; 0.02 mg, 0.08 mg, 0.4 mg in 1.8 ml, vs placebo) was “few and no differences were noted between the active and placebo groups” and the duration of anesthesia ([5]; all doses tested (0.02 mg, 0.08 mg, 0.4 mg in 1.8 ml), 40 minutes after lidocaine 2% with epinephrine 1:100,000, vs saline, each measured tissue) was “significantly (p<0.01) reduced”.

From US7229630B2, “Stabilized formulations of alpha adrenergic receptor antagonists and the uses thereof” (Novalar Pharmaceuticals, Inc., priority 2002, dated 2007)
